Entries after “also recorded” stand apart in the source; their conditions may differ.

System in one test: not given
Test: not given
To be noted: peptides from bovine skin collagen; cited from earlier work. The source says:
(§1) At present, dietary proteins isolated from black beans, fermented soybean, balsam pear, and other sources have been identified as having anti-diabetic peptide properties. In vitro experiments have confirmed the hypoglycemic effects of many of these peptides, with some outperforming clinical drugs. […] He L, et al. isolated five peptides (GPVGPPG, GPPGPT, APGGAP, FGPGP, and GPVG) from bovine skin colla ...
In the case of “FGPGP [peptide from bovine skin collagen]”, the Anti-diabetic properties result was “exhibited anti-diabetic properties”.

Regarding “GPVGPPG [peptide from bovine skin collagen]”, the Anti-diabetic properties entry is given as “exhibited anti-diabetic properties”. Consider “APGGAP [peptide from bovine skin collagen]”, for which the Anti-diabetic properties result is given as “exhibited anti-diabetic properties”. Regarding “GPVG [peptide from bovine skin collagen]”, the Anti-diabetic properties entry is reported as “exhibited anti-diabetic properties”. On to “GPPGPT [peptide from bovine skin collagen]”, for which the Anti-diabetic properties entry is listed as “exhibited anti-diabetic properties”.

Another test relates to α-glucosidase.
Test: not given
As to conditions: peptides from silkworm pupae; cited from earlier work.
From the text: as §1
Turning to QPPT [peptide from silkworm pupae], the “Suppression of α-glucosidase activity” value was “can suppress α-glucosidase activity”. For NSPR [peptide from silkworm pupae], the “Suppression of α-glucosidase activity” value is recorded as “can suppress α-glucosidase activity”. As to QPGR [peptide from silkworm pupae], the “Suppression of α-glucosidase activity” value was “can suppress α-glucosidase activity”. For SQSPA [peptide from silkworm pupae], the “Suppression of α-glucosidase activity” value is on record as “can suppress α-glucosidase activity”.

Another test has as its system α-glucosidase. Put plainly: α-Glucosidase activity inhibition test (pNPG). To be noted: 0.1 to 0.7 mg/mL; in vitro; comparison with acarbose where stated. The test is classed as biochemical. On the procedure:
The samples were prepared at different concentrations (1-7 mg/mL), and the following compounds were prepared: α-glucosidase (0.1 Ua), PBS (pH 6.8, 0.05 mol/L), PNPG (2.5 mmol/L), and Na2CO3 (1 mol/L). The control, sample blank, and sample groups were incubated at their appropriate temperature and time, and the absorbance at 405 nm was measured using a microplate reader. The inhibitory activity was calculated using Eq (2). The inhibition rate of α-glucosidase was solved according to the concentration of different mass samples. The IC50 values were calculated based on the fitting curves. […] All experiments were conducted in triplicate and the data are expressed as the mean ± standard deviation (SD). Statistical analysis was performed using SPSS 27.0 software with Duncan's multiple and one-way ANOVA tests to determine the differences among the mean values. The mapping was done using prism and bioinformatics tools (http://www.bioinformatics.com.cn/).
Take “NWYR [tetrapeptide from in silico trypsin hydrolysis of porcine collagen BAX02569.1, synthesized by solid-phase synthesis]”: the “Inhibition of α-glucosidase in words” value was “significantly inhibited α-glucosidase activity in a concentration-dependent manner; also recorded: no significant difference between them and acarbose; also recorded: the inhibitory effect of NWYR was stronger”.

These data come from PMC10931479, “Exploration of hypoglycemic peptides from porcine collagen based on network pharmacology and molecular docking” (PLOS ONE, 2024).
